In patent US11427594B2, “Non brain penetrant A2A inhibitors and methods for use in the treatment of cancers” (iTeos Belgium SA, priority 2018, dated 2022):
Like-named read-outs stand apart in the source and are kept apart here.

How the values were obtained:
A2A receptor = molecular target: T1, A2A receptor (Homo sapiens, UniProt P29274); test: Inhibition of cAMP production in HEK cells (LANCE Ultra cAMP, TR-FRET); type: cell-based; conditions: HEK-293 cells with stable transfection of A2A receptor
T1 construct: host or cells: HEK-293
T1 sequence (P29274 whole entry): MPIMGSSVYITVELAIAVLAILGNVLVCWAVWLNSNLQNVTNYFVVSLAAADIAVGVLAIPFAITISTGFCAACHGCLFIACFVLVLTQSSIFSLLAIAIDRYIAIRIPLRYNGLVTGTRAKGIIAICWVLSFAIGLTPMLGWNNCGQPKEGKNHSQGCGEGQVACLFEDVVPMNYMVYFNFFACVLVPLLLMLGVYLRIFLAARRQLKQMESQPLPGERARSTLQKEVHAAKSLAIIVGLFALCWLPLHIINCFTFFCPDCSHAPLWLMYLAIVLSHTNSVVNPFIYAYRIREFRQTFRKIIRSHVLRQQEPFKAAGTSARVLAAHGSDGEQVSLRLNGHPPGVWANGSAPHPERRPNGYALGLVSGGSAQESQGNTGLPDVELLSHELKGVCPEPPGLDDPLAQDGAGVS
Experimental: When the A2A receptor is activated, is induces the production of cAMP. The present assay thus aims at showing that cAMP production is inhibited in HEK cells in response to their exposure to the compounds of the invention. HEK-293 cells with a stable transfection of A2A receptor were bought from PerkinElmer® (#ES-011-C). Cells were cultured in EMEM medium (Lonza, #BE12-611F) supplemented with 10% FBS (Lonza, #DE14-801F) and 200 μg/mL of G418 (Tocris, #4131) at 37° C. and 5% CO2. Fresh media without the selection marker was added on the day immediately before the experiment to stop selection pressure. cAMP inhibition and antagonist IC50 determination were accessed using the LANCE® Ultra cAMP Kit from PerkinElmer® (#TRF0262) on white half area 96 well plates (PerkinElmer®, #6005560). The assays were conducted in two different stimulation buffers: • a) normal with 1×HBSS (Gibco®, #141750-95), 5 mM HEPES (Lonza, #BE17-737E), 0.1% BSA and 25 μM Rolipram and • b) HSA with 1×HBSS (Gibco®, #141750-95), 5 mM HEPES (Lonza, #BE17-737E), 2% Human Serum Albumin (Sigma-Aldrich®—A1653), 30 μM of EHNA (Tocris—#1261) and 100 μM Rolipram. Stimulation buffer b) mimics the human situation by increasing the amount of albumin present in the assay. Compounds of the present invention were diluted 100× in either of the buffers depending on the assay performed. A total of 1000 cells per well were pre-incubated for 10 minutes with the compounds of the present invention before adding the corresponded EC80 of A2A agonist (3 nM of NECA in normal buffer) or 5 μM of Adenosine (in HAS buffer) for a total reaction time of 30 minutes. The total volume of the reaction was 20 μl (10 μl of cells, 5 μl of antagonist and 5 μl of agonist). The reaction was finalized by adding 10 μl of 4×EU-cAMP tracer working solution and 10 μl of 4× ULight-anti-cAMP working solution. The TR-FRET signal was measured after 1 hour using a Spectramax Paradigm (Molecular Devices).

[1] = Permeability and efflux in Caco-2 cells; type: in vitro ADME; conditions: human, Caco-2 monolayer, bidirectional transport, pH 7.4
Experimental: The transport buffer (TB, pH 7.4) used in the study is Hank's Buffered Saline Solution (HBSS, Gibco, Cat #14025-076) with 10 mM HEPES at pH 7.4. Fetal bovine serum (FBS) (Corning, Cat #Corning-35-076-CV, or other vendors), Minimum Essential Media (MEM) (Gibco, Cat #41500-034) as well as its supplements are purchased from Invitrogen (Carlsbad, Calif., USA). Caco-2 cell line (Cat #HTB-37) is purchased from the ATCC (Rockville, Md., USA). The organic solvents used in the study are purchased from Sigma Aldrich (St. Louis, Mo., USA). For reference compounds (fenoterol, propranolol and digoxin) and test compounds, 0.4 mM intermediate solutions are prepared by diluting 10 mM or other appropriate concentrations of DMSO stock solutions with DMSO. 2 μM dosing solutions for reference compounds and test compounds are prepared by spiking the appropriate volume of intermediate solution to TB with and without 1 μM Zosuquidar. The final concentration of DMSO is no more than 1% (v/v). Caco-2 cells are grown in MEM supplemented with 2 mM L-glutamine, 10% FBS, 100 U/mL penicillin-G and 100 μg/mL streptomycin. The cells are incubated at 37° C., 5% CO2 and relatively saturated humidity. After reaching 80-90% confluency, the cells are gently detached with 0.05% trypsin-EDTA solution. Cells at passage 30-50 are seeded on the 96-well BD insert system (Cat #359274) at the density of 1×10^5 cells/cm2 and cultured for 21-28 days with medium changed every 4-5 days. TB and dosing solutions were pre-warmed to 37° C. before transport assay. The cell monolayer was washed twice with HBSS containing 10 mM HEPES. For A-B (apical to basolateral) directional transport assay, 75 μL dosing solution is added to the apical well. Fill each basolateral well with 250 μL TB. For B-A (basolateral to apical) directional transport assay, 250 μL of dosing solution is added to the basolateral well after filling each apical well with 75 μL TB. Test compound(s) and digoxin are tested at 2 μM in the presence or absence of 1 μM zosuquidar bidirectionally in duplicate. Atenolol and propranolol are tested at 2 μM in the absence of zosuquidar in A to B direction in duplicate. The plates are incubated for 120 minutes at 37° C. with 5% C02 and saturated humidity. The time zero samples are generated by mixing 50 μL initial dosing solution of test compound or reference compound with 100 μL TB and 250 μL quench solution (acetonitrile (ACN) or other appropriate solvent with internal standard(s), based on the bioanalytical method development). At 120 minutes, 150 μL of solution is collected from each A-B receiver well followed by addition of 250 μL quench solution to get A-B receiver sample. And for other samples (A-B donor, B-A donor and receiver), 50 μL of solution is collected from each corresponding well followed by addition of 250 μL quench solution and 100 μL TB. All samples are vortex-mixed and centrifuged at 3220 g for 20 minutes. Subsequently, supernatant is diluted with ultra pure water for LC-MS/MS analysis. The concentrations of test compound in all samples are determined by LC-MS/MS and expressed as peak area ratio of analyte to internal standard. The concentration of samples is expressed using the peak area ratio of Analyte to Internal Standard (Analyte/IS). The apparent permeability coefficient (Papp) is calculated using the following equation: Papp=VR/(Area*Time)*(CR/C0) wherein VR is the solution volume in the receiver chamber (0.075 mL on the apical side, 0.25 mL on the basolateral side); Area is the surface area for the transport, i.e. 0.0804 cm2 for the area of the monolayer; Time is incubation time, expressed in seconds, 2 h=2×3600 s; C0 is the initial concentration in the donor chamber; CR is the final concentrations in receiver chamber. The efflux ratio is calculated using the following equation: Efflux ratio=[…]) where Papp (A-B) and Papp (B-A) are the Papp values of compound in Apical to Basolateral and Basolateral to Apical directional transport, respectively.

[2] = HSA stimulation buffer, 5 μM Adenosine as agonist, 2.0% HSA, read-out: IC50 (nM) (5 μM Adenosine as agonist, 2.0% HSA)
[3] = normal stimulation buffer, 3 nM NECA as agonist, 0.1% BSA, read-out: IC50 (nM) (3 nM NECA as agonist, 0.1% BSA)

| SMILES | IC50 (A2A receptor; [2]) [nM] | IC50 (A2A receptor; [3]) [nM] | efflux ratio at 120 min, 2 μM [1] |
| --- | --- | --- | --- |
| C[S@@+]([O-])CCOc1cc(N2CCN(CCNc3nc(N)n4nc(-c5ccco5)nc4n3)CC2)c(F)cc1F [Compound 11, (R)—N5-(2-(4-(2,4-difluoro-5-(2-(methylsulfinyl)ethoxy)phenyl)piperazin-1-yl)ethyl)-2-(furan-2-yl)-[1,2,4]triazolo[1,5-a][1,3,5]triazine-5,7-diamine] | 41 | 0.4 | > 600 |
| C[S@+]([O-])CCOc1cc(N2CCN(CCn3ncc4c3nc(N)n3nc(-c5ccco5)nc43)CC2)c(F)cc1F [Compound 12, (S)-7-(2-(4-(2,4-difluoro-5-(2-(methylsulfinyl)ethoxy)phenyl)piperazin-1-yl)ethyl)-2-(furan-2-yl)-7H-pyrazolo[4,3-e][1,2,4]triazolo[1,5-c]pyrimidin-5-amine] | 162 | 0.4 | > 140 |
| C[S@@+]([O-])CCOc1cc(N2CCN(CCn3ncc4c3nc(N)n3nc(-c5ccco5)nc43)CC2)c(F)cc1F [Compound 13, (R)-7-(2-(4-(2,4-difluoro-5-(2-(methylsulfinyl)ethoxy)phenyl)piperazin-1-yl)ethyl)-2-(furan-2-yl)-7H-pyrazolo[4,3-e][1,2,4]triazolo[1,5-c]pyrimidin-5-amine] | 131 | 0.5 | > 100 |
| Nc1nc(NCCN2CCN(c3cc(O[C@H]4CC[S@@+]([O-])CC4)c(F)cc3F)CC2)nc2nc(-c3ccco3)nn12 [Compound 14, (1s,4s)-4-(5-(4-(2-((7-amino-2-(furan-2-yl)-[1,2,4]triazolo[1,5-a][1,3,5]triazin-5-yl)amino)ethyl)piperazin-1-yl)-2,4-difluorophenoxy)tetrahydro-2H-thiopyran 1-oxide] | 71 | 0.7 | > 900 |
| Nc1nc(NCCN2CCN(c3ccc(C(=O)N4CC[S+]([O-])CC4)cc3F)CC2)nc2nc(-c3ccco3)nn12 [Compound 18, (4-(4-(2-((7-amino-2-(furan-2-yl)-[1,2,4]triazolo[1,5-a][1,3,5]triazin-5-yl)amino)ethyl)piperazin-1-yl)-3-fluorophenyl)(1-oxidothiomorpholino)methanone] | 632 | 0.5 | > 80 |
| Nc1nc(NCCN2CCN(c3ccc(O[C@H]4CC[S@@+]([O-])CC4)cc3F)CC2)nc2nc(-c3ccco3)nn12 [Compound 19] | 106 | 0.8 | > 110 |
| Cn1c(=O)n(CCN2CCN(c3ccc(OCC[S+](C)[O-])cc3F)CC2)c2nc(N)n3nc(-c4ccco4)nc3c21 (stereo not drawn) [Compound 20, 5-amino-3-(2-(4-(2-fluoro-4-(2-(methylsulfinyl)ethoxy)phenyl)piperazin-1-yl)ethyl)-8-(furan-2-yl)-1-methyl-1H-[1,2,4]triazolo[5,1-i]purin-2(3H)-one] | 72 | 0.4 | > 300 |
| Cn1c(=O)n(CCN2CCN(c3cc(OC4CCNC4=O)c(F)cc3F)CC2)c2nc(N)n3nc(-c4ccco4)nc3c21 (stereo not drawn) [Compound 21, 5-amino-3-(2-(4-(2,4-difluoro-5-((2-oxopyrrolidin-3-yl)oxy)phenyl)piperazin-1-yl)ethyl)-8-(furan-2-yl)-1-methyl-1H-[1,2,4]triazolo[5,1-i]purin-2(3H)-one] | 178 | 0.4 | > 150 |
